{
  "source": "paper PMC9767876",
  "about": "“Development of a robust and convenient dual-reporter high-throughput screening assay for SARS-CoV-2 antiviral drug discovery” (Antiviral Research, 2023)",
  "key": {"[1]": {"test_system": "SARS-CoV-2_mNeonGreen virus (Wuhan strain)", "test": "microbe, parasite or virus in culture", "assay_type": "cell-based", "details": "for EC50: read-out: EC50 Mean ± SD (antiviral activity)"}, "in vitro": {"test": "in vitro", "details": "human"}, "[2]": {"test_system": "A549+hACE2+hTMPRSS2_mCherry cells"}, "[3]": {"details": "Severe acute respiratory syndrome coronavirus 2"}},
  "note": "Like-named read-outs stand apart in the source and are kept apart here.",
  "data": [
    {"smiles": "CC(C)(C)[C@H](NC(=O)C(F)(F)F)C(=O)N1C[C@H]2[C@@H]([C@H]1C(=O)N[C@H](C#N)C[C@@H]1CCNC1=O)C2(C)C", "note": "[Nirmatrelvir]", "values": [
      {"measurement": "EC50", "setting": "[1]; [3]", "result": "0.12 ± 0.017", "unit": "µM"},
      {"measurement": "CC50", "setting": "in vitro", "result": "> 50", "unit": "µM"}
    ]},
    {"smiles": "N#C[C@@]1(c2ccc3c(N)ncnn23)O[C@H](CO)[C@@H](O)[C@H]1O", "note": "[GS-441524]", "values": [
      {"measurement": "selectivity index (SI)", "setting": "[1]", "result": "> 30"},
      {"measurement": "EC50", "setting": "[1]; [3]", "result": "1.66 ± 0.42", "unit": "µM"},
      {"measurement": "CC50", "setting": "in vitro", "result": "> 50", "unit": "µM"}
    ]},
    {"smiles": "CCn1c(CO)nn(-c2cc(O[C@@H](C)C(F)(F)F)c(C(=O)Nc3c(F)cccc3Cl)cc2F)c1=O", "note": "[BAY-2402234]", "values": [
      {"measurement": "EC50", "setting": "[1]", "result": "0.005 ± 0.001", "unit": "µM"}
    ]},
    {"smiles": "CN(C)C(=O)COC(=O)Cc1ccc(OC(=O)c2ccc(NC(=N)N)cc2)cc1", "note": "[Camostat]", "values": [
      {"measurement": "EC50", "setting": "[1]; [3]", "result": "> 50", "unit": "µM"},
      {"measurement": "CC50", "setting": "in vitro", "result": "> 50", "unit": "µM"}
    ]},
    {"smiles": "C/C=C/C[C@@H](C)[C@@H](O)[C@H]1C(=O)N[C@@H](CC)C(=O)N(C)[C@H](C)C(=O)N(CC)[C@@H](C(C)C)C(=O)N[C@@H](C(C)C)C(=O)N(C)[C@@H](CC(C)C)C(=O)N[C@@H](C)C(=O)N[C@H](C)C(=O)N(C)[C@@H](CC(C)C)C(=O)N(C)[C@@H](CC(C)C)C(=O)N(C)[C@@H](C(C)C)C(=O)N1C", "note": "[Alisporivir]", "values": [
      {"measurement": "EC50", "setting": "[1]; [3]", "result": "1.46 ± 0.13", "unit": "µM"},
      {"measurement": "CC50", "setting": "in vitro", "result": "23.8 ± 4.75", "unit": "µM"}
    ]},
    {"smiles": "COc1cccc2[nH]c(C(=O)N[C@@H](CC(C)C)C(=O)N[C@@H](C[C@@H]3CCNC3=O)C(=O)CO)cc12", "note": "[PF-00835231]", "values": [
      {"measurement": "selectivity index (SI)", "setting": "[1]", "result": "> 115"},
      {"measurement": "EC50", "setting": "[1]", "result": "0.43 ± 0.08", "unit": "µM"},
      {"measurement": "CC50", "setting": "[2]", "result": "> 50", "unit": "µM"}
    ]},
    {"smiles": "Cn1cnc(Cn2c(=O)[nH]/c(=N\\c3cc4cn(C)nc4cc3Cl)n(Cc3cc(F)c(F)cc3F)c2=O)n1", "note": "[Ensitrelvir]", "values": [
      {"measurement": "EC50", "setting": "[1]; [3]", "result": "0.26 ± 0.043", "unit": "µM"},
      {"measurement": "CC50", "setting": "in vitro", "result": "> 50", "unit": "µM"}
    ]},
    {"smiles": "CCC(CC)COC(=O)[C@H](C)N[P@](=O)(OC[C@H]1O[C@@](C#N)(c2ccc3c(N)ncnn23)[C@H](O)[C@@H]1O)Oc1ccccc1", "note": "[Remdesivir]", "values": [
      {"measurement": "EC50", "setting": "[1]; [3]", "result": "0.04 ± 0.005", "unit": "µM"},
      {"measurement": "CC50", "setting": "in vitro", "result": "> 50", "unit": "µM"}
    ]},
    {"smiles": "CC(C)C(=O)OC[C@H]1O[C@@H](n2ccc(NO)nc2=O)[C@H](O)[C@@H]1O", "note": "[Molnupiravir]", "values": [
      {"measurement": "EC50", "setting": "[1]; [3]", "result": "1.26 ± 0.23", "unit": "µM"},
      {"measurement": "CC50", "setting": "in vitro", "result": "> 50", "unit": "µM"}
    ]}
  ]
}
